Assay results published in patent US20210260069A1, “IRE1a INHIBITOR IN COMBINATION WITH CANCER [sequence] AGENT FOR CANCER TREATMENT” (Fosun Orinove PharmaTech, Inc., priority 2018, published 2021).

How the values were obtained:
[1] = Oral bioavailability test, dog; conditions: in vivo, 4 mg/kg dose
Description: (§1) All PK experiments are standard tests that performed in either WuXi PharmaTech or Charels River Laboratory. 4315 and 4485 (Orin 1001) were dosed PO as a suspension in 1% microcellulose (Sigma) and 50% Sucrouse (Sigma).

[2] = Oral bioavailability test, rat; conditions: in vivo, 10 mg/kg dose
Description: as §1

[3] = Oral bioavailability test, mouse; conditions: in vivo, 10 mg/kg dose
Description: as §1

[4] = test system: human glioblastoma U-87 MG tumor cells; experiment: U-87 MG glioblastoma xenograft (Example 19); type: in vivo, female NCr nu/nu mice
Description: Orin 1001 was administered by oral gavage in a xenograft mouse model using female NCr nu/nu mice injected subcutaneously with human glioblastoma U-87 MG tumor cells, a glioblastoma multiforme (GBM) cell line. Animals were assigned to 4 groups (n=6/group); Vehicle control administered by oral gavage for 28 days, Orin 1001 administered via oral gavage at 300 mg/kg/day for 28 consecutive days, paclitaxel administered weekly by iv at 15 mg/kg, or Orin 1001 administered in combination with paclitaxel.
The percent tumor growth delay was calculated using the following equation: TGD (%)=[T-C/C]×100; where T-C is the difference in time to tumor endpoint from Treated (T) and Control (C).
The time to tumor endpoint (TTE) for each animal was further calculated using the following equation: TTE (days)=log 10 (endpoint volume, mm^3)-b/m, where b is the intercept and m is the slope of the line obtained by linear regression of the log-transformed tumor growth data set.

[5] = test system: human liver HUH-7 cells; experiment: Subcutaneous HUH-7 liver cancer xenograft model, survival (Example 23); type: in vivo, Female BALB/c nude mice
Description: Female BALB/c nude mice were subcutaneously inoculated with human liver HUH-7 cells (from JCRB) to establish a xenograft model of liver cancer. The scheduled administration cycle was 28 days. Animals were assigned into 4 groups (n=10/group): one vehicle group, two single treatment groups (Orin 1001 administered at 80 mg/kg/day q.d. for 28 days; Sorafenib administered following a dose regimen of 18.25 mg/kg/day q.d. for 5 days, then 25 mg/kg/day q.d. for 3 days, and then 45 mg/kg/day q.d. for 20 days, consecutively) and one combination treatment group (sorafenib administered following a dose regimen of 18.25 mg/kg/day q.d. for 5 days, then 25 mg/kg/day q.d. for 3 days, and then 45 mg/kg/day q.d. for 20 days, consecutively, whilst combined with Orin 1001 administered q.d. at a dose of 80 mg/kg/day for 28 days). All vehicle or administration treatments were given via oral gavage. Sorafenib was formulated with Kolliphor® EL/ethanol (2/1, v/v) and water. Orin 1001 was dissolved with cellulose microcrystalline and sucrose in purified water to form as suspension. The mice were euthanized if a tumor volume achieved over 2000 mm^3. Otherwise the experiment ended on the 6th day after the last administration.

[6] = Orin 1001 300 mg/kg/day oral 28 days, paclitaxel 15 mg/kg iv weekly, endpoint 2000 mm^3 or Day 60

COc1cc2c(C)c(CC(=O)N3CCOCC3)c(=O)oc2c(C=O)c1O [Orin 1001]
bioavailability [1]: 68.5%
bioavailability [2]: 52%
bioavailability [3]: 63%
percent tumor growth delay (TGD) [4, 6]: 13%
time to tumor endpoint (TTE) [4, 6]: 29.3 days
tumor delay effect over the control ([4]; each agent alone): not very significant
Median Survival Time (MST) ([5]; Orin 1001 80 mg/kg/day q.d. 28 days, sorafenib 18.25/25/45 mg/kg, Kaplan-Meier): 20 days
ILS (%) (increase of life span) ([5]; versus vehicle group (group 1)): 0%
